Experimental data: article PMC9313321 (Biomedicines, 2022)

Columns and labels:
[1] = Radical scavenging activity (DPPH method); conditions: read-out: Antioxid. EC50, 30 min, absorbance 517 nm
Experimental: To determine the radical scavenging activity (antioxidant activity) of the novel RIV–BIM hybrids, the DPPH method was performed as previously described in the literature [49]. Working solutions of 20 mg of the ligands were prepared daily in 10 mL of MeOH (with a 10% of DMSO). A working solution of 2 mg DPPH in 100 mL MeOH was prepared daily, and its absorbance was checked to be between 0.75 and 1.00 (a.u.). […] Each one of the calibrate points was kept for 30 min under darkness to allow the ligands to exert their antioxidant effects. After 30 min, an auto-zero was performed with MeOH in both sample and reference cells, using a UV–Vis spectrophotometer. […] The antioxidant activity (%AA) for each point was calculated using the following equation: %AA=ADPPH−Aligand/ADPPH×100
The radical scavenging activity of the RIV–BIM compounds was determined by a spectrophotometric method involving the 2,2-diphenyl-1-picrylhydrazyl (DPPH) free radical [35, 64].

Aβ42 self-aggregation = biological target: T1, Aβ42 self-aggregation (Homo sapiens, UniProt P05067); assay: biochemical; type: biochemical; conditions: read-out: Aβ42 Self-Aggreg. Inhib
T1 construct: Beta-amyloid protein, fragment 1-42; purchased GeneCust
Experimental: (§1) The inhibition of Aβ42 aggregation and Cu(II)-induced Aβ42 aggregation, carried out by the RIV–BIM hybrids, was studied using a reported method based on the fluorescence emission of thioflavin T [52, 53].
(§2) Solutions of phosphate buffer 0.215 M at pH = 8.00, Na2CO3 300 μM in distilled water, NaOH 250 mM in distilled water, glycine-NaOH 50 mM buffer at pH = 8.50 and CuCl2 240 μM in phosphate buffer were prepared. Stock solutions of […] of the RIV–BIM compounds were prepared in MeOH (with 20% DMSO). Working solutions of 240 μM of the RIV–BIM hybrids were prepared by the proper dilution of their stock solutions with phosphate buffer. A working solution of glycine-NaOH 50 mM buffer at pH = 8.50 containing 5 μM of thioflavin T (ThT) was prepared daily. Aβ42 (GeneCust) was pre-treated with 1,1,1,3,3,3-hexafluoro-2-propanol (HFIP) to obtain a solution of 0.149 mM by brief sonication and vortexing, which was kept covered overnight at room temperature. From the Aβ42 solution, aliquots of 250 μL were placed into Eppendorf tubes under ice and set to evaporate inside a hood at room temperature overnight. When the contents of the Eppendorf tubes were dried, the Aβ42 aliquots were stored at −20 °C until needed. To obtain the Aβ42 working solution, the Aβ42 aliquots were dissolved with a freshly prepared mixture of 69.5 μL of CH3CN/Na2CO3 (300 μM)/NaOH (250 mM) (48.3/48.3/3.4, v/v/v) by brief sonication and vortexing to obtain an Aβ42 solution of 531.24 μM. To this solution, 392.5 μL of phosphate buffer was added, achieving an Aβ42 working solution of 80 μM. To prepare the incubations, three replicates of Aβ42 alone (30 μL Aβ42 80 μM + 30 μL phosphate buffer), Aβ42 with RIV–BIM (30 μL Aβ42 80 μM + 10 μL RIV–BIM 240 μM + 20 μL phosphate buffer), Aβ42 with copper (30 μL Aβ42 80 μM + 10 μL CuCl2 240 μM + 20 μL phosphate buffer) and Aβ42 with copper and RIV–BIM (30 μL Aβ42 80 μM + 10 μL CuCl2 240 μM + 10 μL RIV–BIM 240 μM + 10 μL phosphate buffer) were placed in Eppendorfs. To obtain the blank solutions, a similar number of Eppendorfs, replacing Aβ42 with phosphate buffer, were prepared. Incubations were performed in a water bath at 37 °C with agitation for 24 h. Afterwards, 180 μL of glycine-NaOH 50 mM buffer at pH = 8.50 containing 5 μM of ThT was added to each Eppendorf and then they were vortexed. Finally, 200 μL of solution from each Eppendorf was placed in the wells of a microplate and fluorescence measurements were monitored using a Spectramax Gemini EM (Molecular Devices) fluorimeter with an excitation wavelength of 446 nm and an emission wavelength of 485 nm. Blank signals were subtracted from the corresponding samples. The fluorescence intensity of the Aβ42 + RIV–BIM solution was compared to that of the Aβ42 solution to obtain the inhibition of Aβ42 self-aggregation for each compound. The fluorescence intensity of the Aβ42 + Cu(II) + RIV–BIM solution was compared to that of the Aβ42 + Cu(II) solution to obtain the inhibition of the Cu(II)-induced Aβ42 aggregation for each hybrid.
(§3) The anti-amyloidogenic capacity of the compounds was assessed in vitro using the thioflavin T (ThT) method. To record fluorescence emission, excitation (446 nm) and emission (485 nm) wavelengths were used. When ThT binds to amyloid fibrils, an increase in absorbance and emission of this dye occurs with concomitant red shifts of the respective spectra. The percent of inhibition of Aβ42 aggregation is shown in Table 1, and the assays were performed in the presence of 20 μM of inhibitor. These concentration conditions were used to overcome solubility problems of some compounds in the aqueous phosphate buffer working medium. […]. […]

[2] = biological target: T2, Cu(II)-induced Aβ42 aggregation (Homo sapiens, UniProt P05067); assay: Inhibition of Cu(II)-induced Aβ42 aggregation (thioflavin T fluorescence); type: biochemical; conditions: read-out: Aβ42 Cu-Ind. Aggreg. Inhib
T2 construct: Beta-amyloid protein, fragment 1-42; purchased GeneCust
Experimental: as §1, §2, §3

Aβ = system: Aβ; design: method as in PMID 32781220; conditions: 50 μM concentration; cited from earlier work

T1 sequence (P05067 672-713 limits assumed): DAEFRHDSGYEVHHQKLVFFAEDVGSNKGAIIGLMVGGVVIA
T2 sequence (P05067 672-713 limits assumed): as above

SMILES: Cc1c(O)c(=O)ccn1C [DMHP, reference compound]
- EC50 [1]: 157 ± 8 µM

SMILES: COc1cc(/C=C/C(=O)CC(=O)/C=C/c2ccc(O)c(OC)c2)ccc1O [Curcumin, reference compound]
- inhibition at 20 µM (Aβ42 self-aggregation): 65.7%
- inhibition at 20 µM [2]: 62.7%
- Aβ inhibition (Aβ): 62%

SMILES: Nc1c2c(nc3ccccc13)CCCC2 [Tacrine, reference compound]
- inhibition at 20 µM (Aβ42 self-aggregation): 28.1%
